Laboratory results: ChEMBL document CHEMBL1149960, “Synthesis, insecticidal and anti-acetylcholinesterase activity of a new class of heterocyclic methanesulfonates” (Bioorg Med Chem Lett, 1996)
Converted amounts (≈) assume the structure as drawn.

Tests used:
[1] = tested on: Diabrotica undecimpunctata; test: whole plant or invertebrate; conditions: in Zea mays, read-out: LD50
Description: Insecticidal activity against southern Corn rootworm (SCRW)

Acetylcholinesterase = biological target: T1, Acetylcholinesterase (Bos taurus, UniProt P23795)
T1 sequence (P23795 whole entry): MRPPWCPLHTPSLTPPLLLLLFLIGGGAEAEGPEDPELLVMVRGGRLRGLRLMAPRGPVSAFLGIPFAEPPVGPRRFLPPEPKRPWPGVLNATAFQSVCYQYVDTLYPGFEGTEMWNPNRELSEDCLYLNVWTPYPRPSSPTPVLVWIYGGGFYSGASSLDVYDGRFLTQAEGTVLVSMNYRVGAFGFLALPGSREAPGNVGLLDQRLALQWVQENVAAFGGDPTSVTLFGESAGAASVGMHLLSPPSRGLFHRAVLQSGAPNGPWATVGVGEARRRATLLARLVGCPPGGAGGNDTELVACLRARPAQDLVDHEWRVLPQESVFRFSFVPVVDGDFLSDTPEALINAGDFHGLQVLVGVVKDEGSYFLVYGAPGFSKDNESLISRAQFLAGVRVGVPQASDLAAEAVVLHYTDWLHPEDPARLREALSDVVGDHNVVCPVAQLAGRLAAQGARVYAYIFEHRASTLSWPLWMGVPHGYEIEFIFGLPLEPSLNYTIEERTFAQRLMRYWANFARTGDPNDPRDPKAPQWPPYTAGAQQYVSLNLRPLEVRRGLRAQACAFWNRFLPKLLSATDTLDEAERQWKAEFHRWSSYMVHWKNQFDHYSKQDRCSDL
Description: Inhibition of bovine erythrocyte acetylcholinesterase (AChE)

Lucilia cuprina = test: whole plant or invertebrate
Description: Insecticidal activity against blowfly Lucilia cuprina

CC1(C)CC(OS(C)(=O)=O)=NN1C(=O)Nc1ccccc1
LC50 [1]: > 1000 µg/mL
IC50 (Acetylcholinesterase): > 1000 µM
LD50 (Lucilia cuprina): > 100 mg/kg

CC(C)NC(=O)N1N=C(OS(C)(=O)=O)CC1C (stereo unspecified)
LC50 [1]: < 0.5 µg/mL
IC50 (Acetylcholinesterase): 28.6 µM
LD50 (Lucilia cuprina): 21 mg/kg

CC(C)NS(=O)(=O)N1N=C(OS(C)(=O)=O)CC1c1ccccc1 (stereo unspecified)
LC50 [1]: > 1000 µg/mL
IC50 (Acetylcholinesterase): > 1000 µM
LD50 (Lucilia cuprina): > 100 mg/kg

CC1(C)CC(OS(C)(=O)=O)=NN1C(=O)NC1CCCCC1
LC50 [1]: > 1000 µg/mL
IC50 (Acetylcholinesterase): 284 µM
LD50 (Lucilia cuprina): 2.64 mg/kg

CC(C)NS(=O)(=O)N1N=C(OS(C)(=O)=O)CC1(C)C
LC50 [1]: 60 µg/mL (≈ 191 µM)
IC50 (Acetylcholinesterase): 1270 µM
LD50 (Lucilia cuprina): 37 mg/kg

CC1(C)CC(OS(C)(=O)=O)=NN1S(C)(=O)=O
LC50 [1]: > 1000 µg/mL
IC50 (Acetylcholinesterase): > 1000 µM
LD50 (Lucilia cuprina): > 1000 mg/kg

CC(C)C(=O)N1N=C(OS(C)(=O)=O)CC1(C)C
LC50 [1]: 120 µg/mL (≈ 457 µM)
IC50 (Acetylcholinesterase): > 1000 µM
LD50 (Lucilia cuprina): > 100 mg/kg

CCCS(=O)(=O)N1N=C(OS(C)(=O)=O)CC1c1ccccc1 (stereo unspecified)
LC50 [1]: > 1000 µg/mL
IC50 (Acetylcholinesterase): 62.5 µM
LD50 (Lucilia cuprina): > 100 mg/kg

CC(C)(C)NC(=O)N1N=C(OS(C)(=O)=O)CC1(C)C
LC50 [1]: 12 µg/mL (≈ 41.2 µM)
IC50 (Acetylcholinesterase): > 1000 µM
LD50 (Lucilia cuprina): 75.9 mg/kg

CCOC(=O)N1N=C(OS(C)(=O)=O)CC1(C)C
LC50 [1]: > 1000 µg/mL
IC50 (Acetylcholinesterase): > 1000 µM
LD50 (Lucilia cuprina): > 100 mg/kg

CC1(C)CC(OS(C)(=O)=O)=NN1C(N)=O
LC50 [1]: > 1000 µg/mL
IC50 (Acetylcholinesterase): > 1000 µM
LD50 (Lucilia cuprina): > 1000 mg/kg

CN(C)S(=O)(=O)N1N=C(OS(C)(=O)=O)CC1c1ccccc1 (stereo unspecified)
LC50 [1]: > 1000 µg/mL
IC50 (Acetylcholinesterase): > 1000 µM
LD50 (Lucilia cuprina): > 100 mg/kg

CC(C)NC(=O)N1N=C(OS(C)(=O)=O)CC1C(C)C (stereo unspecified)
LC50 [1]: 5 µg/mL (≈ 17.2 µM)
IC50 (Acetylcholinesterase): 602 µM
LD50 (Lucilia cuprina): 25.1 mg/kg

CC(C)CS(=O)(=O)c1cccc(OS(C)(=O)=O)n1
LC50 [1]: < 0.5 µg/mL
IC50 (Acetylcholinesterase): 60.5 µM
LD50 (Lucilia cuprina): > 100 mg/kg

CC(C)NC(=O)N1N=C(OS(C)(=O)=O)CC1c1ccccc1 (stereo unspecified)
LC50 [1]: < 0.5 µg/mL
IC50 (Acetylcholinesterase): 40.6 µM
LD50 (Lucilia cuprina): 34.4 mg/kg

CCCNS(=O)(=O)N1N=C(OS(C)(=O)=O)CC1(C)C
LC50 [1]: 55 µg/mL (≈ 175 µM)
IC50 (Acetylcholinesterase): > 1000 µM
LD50 (Lucilia cuprina): 40.9 mg/kg

C=CCNC(=O)N1N=C(OS(C)(=O)=O)CC1(C)C
LC50 [1]: 1.6 µg/mL (≈ 5.81 µM)
IC50 (Acetylcholinesterase): 149 µM
LD50 (Lucilia cuprina): 6.84 mg/kg

CC(C)NC(=O)N1N=C(OS(C)(=O)=O)CC1(C)C
LC50 [1]: 1 µg/mL (≈ 3.61 µM)
IC50 (Acetylcholinesterase): 714 µM
LD50 (Lucilia cuprina): 7.14 mg/kg

COP(=O)(OC)C(O)C(Cl)(Cl)Cl (stereo unspecified) [TRICHLORFON]
IC50 (Acetylcholinesterase): > 1000 µM
LD50 (Lucilia cuprina): 21.8 mg/kg
